Assay: xn = mol fraction of the nth substance listed
Settings: 100 kPa, Liquid; for viscosity: Capillary tube (Ostwald / Ubbelohde) method; for mass density: Vibrating tube method

O=C1CCCCCO1 [6-hexanolactone] + CCCC[n+]1ccn(C)c1.O=S(=O)([N-]S(=O)(=O)C(F)(F)F)C(F)(F)F
Settings | mass density [kg/m3] | viscosity [mPa·s]
293.15 K, x2 = 0 | 1075.92 | 6.63
293.15 K, x2 = 0.05 | 1122.04 | 7.97
293.15 K, x2 = 0.1002 | 1161.48 | 9.67
293.15 K, x2 = 0.1505 | 1195.51 | 11.48
293.15 K, x2 = 0.1985 | 1223.86 | 13.4
293.15 K, x2 = 0.3001 | 1273.58 | 18.05
293.15 K, x2 = 0.3987 | 1311.9 | 23.25
293.15 K, x2 = 0.4903 | 1341.13 | 28.59
293.15 K, x2 = 0.6309 | 1377.36 | 37.38
293.15 K, x2 = 0.6988 | 1391.97 | 41.8
293.15 K, x2 = 0.8042 | 1411.81 | 48.8
293.15 K, x2 = 0.883 | 1424.76 | 54.08
298.15 K, x2 = 0 | 1071.67 | 5.76
298.15 K, x2 = 0.05 | 1117.68 | 6.87
298.15 K, x2 = 0.1002 | 1157.04 | 8.29
298.15 K, x2 = 0.1505 | 1191 | 9.78
298.15 K, x2 = 0.1985 | 1219.3 | 11.34
298.15 K, x2 = 0.3001 | 1268.92 | 15.14
298.15 K, x2 = 0.3987 | 1307.17 | 19.36
298.15 K, x2 = 0.4903 | 1336.35 | 23.66
298.15 K, x2 = 0.6309 | 1372.52 | 30.61
298.15 K, x2 = 0.6988 | 1387.11 | 34.05
298.15 K, x2 = 0.8042 | 1406.92 | 39.48
298.15 K, x2 = 0.883 | 1419.85 | 43.58
303.15 K, x2 = 0 | 1067.41 | 5.04
303.15 K, x2 = 0.05 | 1113.3 | 5.97
303.15 K, x2 = 0.1002 | 1152.56 | 7.18
303.15 K, x2 = 0.1505 | 1186.44 | 8.42
303.15 K, x2 = 0.1985 | 1214.67 | 9.71
303.15 K, x2 = 0.3001 | 1264.18 | 12.78
303.15 K, x2 = 0.3987 | 1302.35 | 16.15
303.15 K, x2 = 0.4903 | 1331.47 | 19.54
303.15 K, x2 = 0.6309 | 1367.57 | 25.2
303.15 K, x2 = 0.6988 | 1382.12 | 28.07
303.15 K, x2 = 0.8042 | 1401.89 | 32.58
303.15 K, x2 = 0.883 | 1414.8 | 36.02
308.15 K, x2 = 0 | 1063.15 | 4.44
308.15 K, x2 = 0.05 | 1108.94 | 5.22
308.15 K, x2 = 0.1002 | 1148.11 | 6.25
308.15 K, x2 = 0.1505 | 1181.92 | 7.26
308.15 K, x2 = 0.1985 | 1210.09 | 8.36
308.15 K, x2 = 0.3001 | 1259.51 | 10.91
308.15 K, x2 = 0.3987 | 1297.6 | 13.67
308.15 K, x2 = 0.4903 | 1326.67 | 16.42
308.15 K, x2 = 0.6309 | 1362.7 | 20.93
308.15 K, x2 = 0.6988 | 1377.23 | 23.21
308.15 K, x2 = 0.8042 | 1396.97 | 26.77
308.15 K, x2 = 0.883 | 1409.86 | 29.49
313.15 K, x2 = 0 | 1058.9 | 3.95
313.15 K, x2 = 0.05 | 1104.57 | 4.61
313.15 K, x2 = 0.1002 | 1143.65 | 5.5
313.15 K, x2 = 0.1505 | 1177.38 | 6.41
313.15 K, x2 = 0.1985 | 1205.49 | 7.35
313.15 K, x2 = 0.3001 | 1254.8 | 9.43
313.15 K, x2 = 0.3987 | 1292.82 | 11.71
313.15 K, x2 = 0.4903 | 1321.83 | 14.07
313.15 K, x2 = 0.6309 | 1357.8 | 17.79
313.15 K, x2 = 0.6988 | 1372.3 | 19.67
313.15 K, x2 = 0.8042 | 1392.01 | 22.59
313.15 K, x2 = 0.883 | 1404.86 | 24.85
318.15 K, x2 = 0 | 1054.65 | 3.53
318.15 K, x2 = 0.05 | 1100.22 | 4.07
318.15 K, x2 = 0.1002 | 1139.2 | 4.87
318.15 K, x2 = 0.1505 | 1172.86 | 5.67
318.15 K, x2 = 0.1985 | 1200.91 | 6.5
318.15 K, x2 = 0.3001 | 1250.12 | 8.31
318.15 K, x2 = 0.3987 | 1288.06 | 10.27
318.15 K, x2 = 0.4903 | 1317.02 | 12.18
318.15 K, x2 = 0.6309 | 1352.92 | 15.24
318.15 K, x2 = 0.6988 | 1367.39 | 16.82
318.15 K, x2 = 0.8042 | 1387.06 | 19.24
318.15 K, x2 = 0.883 | 1399.89 | 21.07
323.15 K, x2 = 0 | 1050.4 | 3.17
323.15 K, x2 = 0.05 | 1095.86 | 3.69
323.15 K, x2 = 0.1002 | 1134.75 | 4.36
323.15 K, x2 = 0.1505 | 1168.33 | 5.03
323.15 K, x2 = 0.1985 | 1196.32 | 5.73
323.15 K, x2 = 0.3001 | 1245.42 | 7.26
323.15 K, x2 = 0.3987 | 1283.28 | 8.9
323.15 K, x2 = 0.4903 | 1312.18 | 10.53
323.15 K, x2 = 0.6309 | 1348.01 | 13.14
323.15 K, x2 = 0.6988 | 1362.45 | 14.49
323.15 K, x2 = 0.8042 | 1382.08 | 16.64
323.15 K, x2 = 0.883 | 1394.89 | 18.26

CC1CCC(=O)O1 (stereo unspecified) [γ-valerolactone] + CCCC[n+]1ccn(C)c1.O=S(=O)([N-]S(=O)(=O)C(F)(F)F)C(F)(F)F
Settings | mass density [kg/m3] | viscosity [mPa·s]
293.15 K, x2 = 0 | 1053.99 | 1.99
293.15 K, x2 = 0.0505 | 1108.43 | 2.51
293.15 K, x2 = 0.1001 | 1153.24 | 3.21
293.15 K, x2 = 0.1492 | 1191.45 | 4.28
293.15 K, x2 = 0.1998 | 1223.25 | 5.6
293.15 K, x2 = 0.3008 | 1274.04 | 8.84
293.15 K, x2 = 0.4031 | 1317.29 | 13.88
293.15 K, x2 = 0.5048 | 1347.03 | 19.18
293.15 K, x2 = 0.6031 | 1373.16 | 25.88
293.15 K, x2 = 0.6973 | 1393.96 | 33.12
293.15 K, x2 = 0.7994 | 1413.3 | 42.31
293.15 K, x2 = 0.8711 | 1426.6 | 50.45
298.15 K, x2 = 0 | 1049.28 | 1.82
298.15 K, x2 = 0.0505 | 1103.66 | 2.21
298.15 K, x2 = 0.1001 | 1148.42 | 2.76
298.15 K, x2 = 0.1492 | 1186.58 | 3.57
298.15 K, x2 = 0.1998 | 1218.36 | 4.71
298.15 K, x2 = 0.3008 | 1269.12 | 7.2
298.15 K, x2 = 0.4031 | 1312.35 | 11.11
298.15 K, x2 = 0.5048 | 1342.1 | 15.34
298.15 K, x2 = 0.6031 | 1368.22 | 20.69
298.15 K, x2 = 0.6973 | 1389.01 | 26.55
298.15 K, x2 = 0.7994 | 1408.36 | 34.16
298.15 K, x2 = 0.8711 | 1421.67 | 40.79
303.15 K, x2 = 0 | 1044.58 | 1.67
303.15 K, x2 = 0.0505 | 1098.86 | 1.98
303.15 K, x2 = 0.1001 | 1143.54 | 2.45
303.15 K, x2 = 0.1492 | 1181.67 | 3.13
303.15 K, x2 = 0.1998 | 1213.42 | 4.03
303.15 K, x2 = 0.3008 | 1264.12 | 6.01
303.15 K, x2 = 0.4031 | 1307.33 | 9.11
303.15 K, x2 = 0.5048 | 1337.07 | 12.52
303.15 K, x2 = 0.6031 | 1363.16 | 17.18
303.15 K, x2 = 0.6973 | 1383.94 | 21.62
303.15 K, x2 = 0.7994 | 1403.29 | 27.85
303.15 K, x2 = 0.8711 | 1416.59 | 33.15
308.15 K, x2 = 0 | 1039.87 | 1.53
308.15 K, x2 = 0.0505 | 1094.09 | 1.81
308.15 K, x2 = 0.1001 | 1138.71 | 2.22
308.15 K, x2 = 0.1492 | 1176.8 | 2.79
308.15 K, x2 = 0.1998 | 1208.52 | 3.53
308.15 K, x2 = 0.3008 | 1259.2 | 5.16
308.15 K, x2 = 0.4031 | 1302.39 | 7.78
308.15 K, x2 = 0.5048 | 1332.11 | 10.6
308.15 K, x2 = 0.6031 | 1358.2 | 14.12
308.15 K, x2 = 0.6973 | 1378.98 | 17.97
308.15 K, x2 = 0.7994 | 1398.34 | 22.82
308.15 K, x2 = 0.8711 | 1411.63 | 27.09
313.15 K, x2 = 0 | 1035.16 | 1.42
313.15 K, x2 = 0.0505 | 1089.31 | 1.65
313.15 K, x2 = 0.1001 | 1133.87 | 2
313.15 K, x2 = 0.1492 | 1171.93 | 2.45
313.15 K, x2 = 0.1998 | 1203.61 | 3.17
313.15 K, x2 = 0.3008 | 1254.26 | 4.5
313.15 K, x2 = 0.4031 | 1297.42 | 6.65
313.15 K, x2 = 0.5048 | 1327.12 | 9.02
313.15 K, x2 = 0.6031 | 1353.2 | 12.05
313.15 K, x2 = 0.6973 | 1373.98 | 15.14
313.15 K, x2 = 0.7994 | 1393.33 | 19.14
313.15 K, x2 = 0.8711 | 1406.62 | 22.7
318.15 K, x2 = 0 | 1030.45 | 1.32
318.15 K, x2 = 0.0505 | 1084.53 | 1.52
318.15 K, x2 = 0.1001 | 1129.05 | 1.79
318.15 K, x2 = 0.1492 | 1167.06 | 2.22
318.15 K, x2 = 0.1998 | 1198.73 | 2.8
318.15 K, x2 = 0.3008 | 1249.35 | 4.03
318.15 K, x2 = 0.4031 | 1292.49 | 5.76
318.15 K, x2 = 0.5048 | 1322.17 | 7.84
318.15 K, x2 = 0.6031 | 1348.24 | 10.41
318.15 K, x2 = 0.6973 | 1369.02 | 12.96
318.15 K, x2 = 0.7994 | 1388.35 | 16.42
318.15 K, x2 = 0.8711 | 1401.62 | 19.25
323.15 K, x2 = 0 | 1025.74 | 1.23
323.15 K, x2 = 0.0505 | 1079.76 | 1.41
323.15 K, x2 = 0.1001 | 1124.22 | 1.66
323.15 K, x2 = 0.1492 | 1162.18 | 2.04
323.15 K, x2 = 0.1998 | 1193.83 | 2.49
323.15 K, x2 = 0.3008 | 1244.4 | 3.59
323.15 K, x2 = 0.4031 | 1287.51 | 5.19
323.15 K, x2 = 0.5048 | 1317.18 | 6.98
323.15 K, x2 = 0.6031 | 1343.25 | 9.22
323.15 K, x2 = 0.6973 | 1364.02 | 11.45
323.15 K, x2 = 0.7994 | 1383.35 | 14.32
323.15 K, x2 = 0.8711 | 1396.6 | 16.68
